Experimental data from patent publication US4363812A, “3-(Tetrazol-5-yl), 4-methyl-8-alkoxy coumarins and anti-allergic compositions thereof” (priority 1978, dated 1982).
Where a name gives a salt, the structure may show the parent alone. Read-outs that look alike come from different tables or passages of the source.

Tests used:
[1] = acute toxicity, oral, in mice; type: in vivo; conditions: mouse, in vivo, po
Method: (§1) Moreover, the introduction of substituent groups such as an alkoxyl group, an alkenyloxy group and hydroxyl group to the 5, 6, 7 or 8 position of the coumarin ring brings the decrease of toxicity.
(§2) With respect to the present 3-(1H-tetrazol-5-yl)coumarin derivatives, there was tested acute toxicity in mice.
(§3) After normal female Slc: ddy mice 4 weeks old were purchased and fed preliminarily in this lavoratory for a week, these mice weighing 25-27 g. were used in the test. The present compounds to be tested, were suspended in a 10% gum arabic solution and administered orally […]. body weight to mice. Each dose level was given to a group of ten animals and the survivors were kept under observation for 6 days. The numbers of dead animals were counted and the LD50 values in mg./kg. body weight were calculated by the method of Litchfield-Wilcoxon.

[2] = system: passive cutaneous anaphylaxis (PCA) mediated by homocytotropic antibodies (HTA); experiment: passive cutaneous anaphylaxis (PCA) test, oral, in rats; type: in vivo, rat (Wistar); conditions: for minimal effective dose: Rattus norvegicus
Method: With respect to the present 3-(1H-tetrazol-5-yl)coumarin derivatives, there was tested antiallergic activity concerning passive cutaneous anaphylaxis (PCA) mediated by homocytotropic antibodies (HTA) in rats.
(i) Preparation of antisera
2,4-Dinitrophenyl-coupled ascaris extract (DNP-As) used as antigen, was prepared according to the methods of Strejan et al [cf. J. Immunol., Vol. 98, 893(1967)] and Eisen [cf. J. Amer. Chem. Soc., Vol. 75. 4593(1953)]. Antisera containing HTA were prepared in rats according to the method of Tada and Okumura [cf. J. Immunol., Vol. 106, 1002(1971)] as follows:
Female wister rats weighing 180 to 200 g. were splenectomized and several days later immunized by injecting into all four footpads a total of 1 mg. of DNP-As mixed with 10^10 Bordetella pertussis. After 5 days, 0.5 mg. of DNP-As alone was injected subcutaneously into the back of rats. Eight days after the first immunization, blood was collected by aortic puncture under ether anaesthesea and antisera obtained by these procedures were pooled and stored at -80° C.
The titer of the pooled autiserum was determined in rats by the 72 hr. PCA which method was described in the following item (ii), i.e. the highest dilution of antiserum producing a diameter of approximately 5 mm. was usually 1:500.
(ii) Assessment of PCA in rats
Normal wister rats weighing 140 to 160 g. were sensitized passively by injection intradermal on the shaved back skin 0.05 ml. of the diluted antisera (1:30). After 72 hours, the animals were injected intravenously 1 ml. of physiological salt solution containing 2 mg. DNP-As and 2.5 mg. Evans' blue.
The present compounds to be tested were given orally 30 minutes before antigen challenge. The animals were exsanguinated 30 minutes after challenge with the antigens and the skins were exfoliated. The intensities of PCA were evaluated by measuring the amount of leaked dye. The amount of dye leaked as a result of PCA was extracted according to the method of Harada et al [cf. Jpn. J. Allergol., Vol. 15, 1(1966)] and measured photometrically.

mice = experiment: acute toxicity, oral, in mice; type: in vivo; conditions: Table 4; oral, female Slc: ddy mice, 6 days observation, Litchfield-Wilcoxon; 8640 min
Method: as §1, §2, §3

[3] = Table 4, oral, female Slc: ddy mice, 6 days observation, Litchfield-Wilcoxon, read-out: LD50
[4] = Table 3, oral 30 minutes before antigen challenge, rats, lowest dose significantly decreasing leaked dye vs control, read-out: MED (minimum effect dose)
[5] = LD50 (50% lethal dose), Table 1, orally in mice
[6] = po, read-out: MED (minimum effective dose)
[7] = read-out: MED (minimum effect dose)

SMILES	LD50 at 144 h [1, 3] [mg/kg]	minimal effective dose [2, 4] [mg/kg]	also measured
C=CCOc1cccc2cc(-c3nnn[nH]3)c(=O)oc12 [Example 16, 8-Allyloxy-3-(1H-tetrazol-5-yl)coumarin]	2000 to 3000	1.56	
CC(C)=CCC/C(C)=C/COc1cccc2cc(-c3nnn[nH]3)c(=O)oc12 [Example 17, 8-Geranyloxy-3-(1H-tetrazol-5-yl)coumarin]	500 to 1000	6.25	
CC(C)=CCCC(C)=CCCC(C)=CCOc1cccc2cc(-c3nnn[nH]3)c(=O)oc12 [Example 18, 8-Farnesyloxy-3-(1H-tetrazol-5-yl)coumarin]	1000 to 2000	6.25	
O=c1oc2c(O)cccc2cc1-c1nnn[nH]1 [Example 19, 8-Hydroxy-3-(1H-tetrazol-5-yl)coumarin]	2000 to 3000	25	
CCOc1cc(C)cc2cc(-c3nnn[nH]3)c(=O)oc12 [Example 20, 8-Ethoxy-6-methyl-3-(1H-tetrazol-5-yl)coumarin]	2360		LD50 at 144 h [1, 5]: 2360 mg/kg; minimal effective dose [2, 6]: 1.56 mg/kg; minimal effective dose [2, 7]: 1.56 mg/kg
CCCOc1cc(C)cc2cc(-c3nnn[nH]3)c(=O)oc12 [Example 21, 6-Methyl-8-n-propoxy-3-(1H-tetrazol-5-yl)coumarin]	1000 to 2000	1.56	
Cc1cc(OC(C)C)c2oc(=O)c(-c3nnn[nH]3)cc2c1 [Example 22, 8-Isopropoxy-6-methyl-3-(1H-tetrazol-5-yl)coumarin]	2200		LD50 at 144 h [1, 5]: 2200 mg/kg; minimal effective dose [2, 6]: 1.56 mg/kg; minimal effective dose [2, 7]: 1.56 mg/kg
CCc1cc2cc(-c3nnn[nH]3)c(=O)oc2cc1OC [Example 23, 6-Ethyl-7-methoxy-3-(1H-tetrazol-5-yl)coumarin]	500 to 1000	1.56	
COc1ccc2cc(-c3nnn[nH]3)c(=O)oc2c1C [Example 24, 7-Methoxy-8-methyl-3-(1H-tetrazol-5-yl)coumarin]	300 to 1000	6.25	
COc1cc2cc(-c3nnn[nH]3)c(=O)oc2cc1C [Example 25, 6-Methoxy-7-methyl-3-(1H-tetrazol-5-yl)coumarin]	500 to 1000	12.5	
C=CCOc1cc(C)cc2cc(-c3nnn[nH]3)c(=O)oc12 [Example 26, 8-Allyloxy-6-methyl-3-(1H-tetrazol-5-yl)coumarin]	2000 to 3000	1.56	
Cc1cc(O)c2oc(=O)c(-c3nnn[nH]3)cc2c1 [Example 27, 8-Hydroxy-6-methyl-3-(1H-tetrazol-5-yl)coumarin]	2000 to 3000	12.5	
COc1cc2oc(=O)c(-c3nnn[nH]3)cc2cc1CC=C(C)C [Example 28, 7-Methoxy-6-(3-methyl-2-butenyl)-3-(1H-tetrazol-5-yl)coumarin]	500 to 1000	1.56	
CCOc1cc2oc(=O)c(-c3nnn[nH]3)cc2cc1CC=C(C)C [Example 29, 7-Ethoxy-6-(3-methyl-2-butenyl)-3-(1H-tetrazol-5-yl)coumarin]	500 to 1000	12.5	
CCOc1cc(OCC)c2cc(-c3nnn[nH]3)c(=O)oc2c1 [Example 30, 5,7-Diethoxy-3-(1H-tetrazol-5-yl)coumarin]	2000 to 3000	12.5	
CCCCOc1cccc2cc(-c3nnn[nH]3)c(=O)oc12 [Example 31, Sodium salt of 8-n-butoxy-3-(1H-tetrazol-5-yl)coumarin]			LD50 (mice): 2470 mg/kg; MED (minimum effect dose) ([2]; Table 3, oral 30 minutes before antigen challenge, rats, lowest dose significantly decreasing leaked dye vs control): 1.56 mg/kg
Cc1ccc2oc(=O)c(-c3nnn[nH]3)c(C)c2c1 [J, reference compound]			LD50 at 144 h [1, 5]: 533 mg/kg; minimal effective dose [2, 6]: 25 mg/kg
